Data reported in patent US7045532B2 (Millennium Pharmaceuticals, Inc., priority 1999, dated 2006).
Like-named read-outs stand apart in the source and are kept apart here.

Molecular target: T1, ACE-2 (Homo sapiens, UniProt Q9BYF1)
T1 construct: a stop codon inserted after the serine immediately preceding the transmembrane domain; made in house; host or cells: CHO K1 cells (transient transfection, purified from conditioned medium)
Experiment: ACE-2 Competitive Substrate Assay (ACS Assay)
Format: biochemical

[1] = Ki class per key, compounds tested in 5% DMSO, 12 compound concentrations, 25° C., Ki=Kiapp/(1+[S]/Km), read-out: Human ACE-2 Activity
[2] = Ki class, compounds tested in 5% DMSO, 12 compound concentrations, Ki=Kiapp/(1+[S]/Km), read-out: Human ACE-2 Activity
[3] = Table 3, very good ACE-2 inhibiting compounds, species not given, read-out: ACE-2 Activity, Ki
[4] = Ki class, compounds tested in 5% DMSO, 12 concentrations, read-out: Human ACE-2 Activity

T1 sequence (Q9BYF1 18-740 limits assumed): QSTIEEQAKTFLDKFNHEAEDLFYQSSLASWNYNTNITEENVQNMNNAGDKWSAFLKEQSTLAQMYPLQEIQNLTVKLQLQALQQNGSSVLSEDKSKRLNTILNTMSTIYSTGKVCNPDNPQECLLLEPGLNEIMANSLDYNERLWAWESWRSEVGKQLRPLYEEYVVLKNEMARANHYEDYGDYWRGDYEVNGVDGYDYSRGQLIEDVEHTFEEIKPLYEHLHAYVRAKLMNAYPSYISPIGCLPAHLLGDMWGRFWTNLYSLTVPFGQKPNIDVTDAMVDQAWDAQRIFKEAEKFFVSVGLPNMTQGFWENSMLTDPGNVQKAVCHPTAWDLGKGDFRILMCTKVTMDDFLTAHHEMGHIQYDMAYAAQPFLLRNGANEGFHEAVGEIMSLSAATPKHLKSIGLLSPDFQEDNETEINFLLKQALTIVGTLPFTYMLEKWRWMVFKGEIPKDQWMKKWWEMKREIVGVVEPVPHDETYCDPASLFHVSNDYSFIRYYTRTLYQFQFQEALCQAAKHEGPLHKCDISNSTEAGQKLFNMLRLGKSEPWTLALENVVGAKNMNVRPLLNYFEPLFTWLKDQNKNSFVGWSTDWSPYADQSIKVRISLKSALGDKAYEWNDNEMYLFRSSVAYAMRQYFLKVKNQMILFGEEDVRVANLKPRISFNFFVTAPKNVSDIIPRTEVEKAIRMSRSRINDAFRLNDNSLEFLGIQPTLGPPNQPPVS

Structure (SMILES) | Ki [2] [nM] | Ki [3] [nM] | also measured
CC(C)C[C@H](N[C@@H](Cc1ccccc1C#N)C(=O)O)C(=O)O [QI, 2-[1-Carboxy-2-(2-cyano-phenyl)-ethylamino]-4-methyl-pentanoic acid] | – | – | Ki [1]: 100 to 500 nM
CC(C)C[C@H](N[C@@H](CNC(=O)c1cc2cc(Cl)ccc2[nH]1)C(=O)O)C(=O)O [ND, 2-{1-Carboxy-2-[(5-chloro-1H-indole-2-carbonyl)-amino]-ethylamino}-4-methyl-pentanoic acid] | > 500 | – | –
CC(C)C[C@H](N[C@@H](Cc1ccc(OC(C)(C)C)cc1)C(=O)O)C(=O)O [LU, 2-[2-(4-tert-Butoxy-phenyl)-1-carboxy-ethylamino]-4-methyl-pentanoic acid] | > 500 | – | –
CC(C)CC(N[C@@H](Cc1cncn1Cc1cccc(F)c1F)C(=O)O)C(=O)O (single isomer, unassigned) [IU, 2-[1-Carboxy-2-[3-(2,3-difluoro-benzyl)-3H-imidazol-4-yl]-ethylamino]4-methyl-pentanoic acid] | < 100 | 50 to 100 | –
CC(C)C[C@H](N[C@@H](Cc1coc(-c2ccccc2)n1)C(=O)O)C(=O)O [LM, (S,S)-2-[1-Carboxy-2-(2-phenyl-oxazol-4-yl)ethylamino]-4-methyl-pentanoic acid] | > 500 | – | –
COC(=O)[C@H](Cc1cncn1Cc1cc(Cl)cc(Cl)c1)N[C@@H](CC(C)C)C(=O)OC [MM, 2-{2-[3-(3,5-Dichloro-benzyl)-3H-imidazol-4-yl]-1-methoxycarbonyl-ethylamino}-4-methyl-pentanoic acidmethyl ester] | < 100 | < 50 | –
CC(C)C[C@H](N[C@@H](Cn1ccn(CCc2cccc(F)c2)c1=O)C(=O)O)C(=O)O [NP, 2-(1-Carboxy-2-{3-[2-(3-fluoro-phenyl)-ethyl]-2-oxo2,3-dihydro-imidazol-1-yl]-ethylamino)-4-methyl-pentanoic acid] | 100 to 500 | – | –
CC(C)C[C@H](N[C@@H](Cc1ccc(C(=O)NC2CCCCC2)cc1)C(=O)O)C(=O)O [QH, 2-[1-Carboxy-2-(4-cyclohexylcarbamoyl-phenyl)-ethylamino]-4-methyl-pentanoic acid] | – | – | Ki [1]: > 500 nM
CC(C)CC(N[C@@H](Cc1cncn1Cc1cc(C(F)(F)F)cc(C(F)(F)F)c1)C(=O)O)C(=O)O (single isomer, unassigned) [IG, 2-[2-[3-(3,5-Bis-trifluoromethyl-benzyl)-3H-imidazol-4-yl]-1-carboxy-ethylamino]-4-methyl-pentanoic acid] | > 500 | – | –
CCOC(=O)C(CCc1ccccc1)N[C@@H](CC(C)C)C(=O)O (stereo partly shown) [B, 2-(1-Ethoxycarbonyl-3-phenyl-propylamino)-4-methyl-pentanoicacid] | – | – | Ki [4]: > 500 nM
CC(C)CC(N[C@@H](Cc1cncn1Cc1ccc([N+](=O)[O-])cc1)C(=O)O)C(=O)O (single isomer, unassigned) [IC, 2-[1-Carboxy-2-[3-(4-nitro-benzyl)-3H-imidazol-4-yl]-ethylamino]-4-methyl-pentanoic acid] | < 100 | 50 to 100 | –
CC(C)C[C@H](N[C@@H](Cc1cccc(OCc2cc(F)cc(F)c2)c1)C(=O)O)C(=O)O [NA, 2-[1-Carboxy-2-[3-(3,5-difluoro-benzyloxy)-phenyl]-ethylamino]-4-methyl-pentanoic acid] | 100 to 500 | – | –
CC(C)C[C@H](N[C@@H](Cc1ccccc1Oc1cc(Cl)cc(Cl)c1)C(=O)O)C(=O)O [QN] | – | < 50 | Ki [1]: < 100 nM
CC(C)C[C@H](N[C@@H](Cn1ccn(Cc2cccc(Cl)c2)c1=O)C(=O)O)C(=O)O [OE, (S,S)-2-{1-Carboxy-2-[3-(3-chloro-benzyl)-2-oxo-2,3-dihydro-imidazol-1-yl]-ethylamino}-4-methyl-pentanoic acid] | < 100 | < 50 | –
CC(C)C[C@H](N[C@@H](Cc1cccc(Cc2ccccc2)c1)C(=O)O)C(=O)O [PB, (S,S)-2-[2-(3-Benzyl-phenyl)-1-carboxy-ethylamino]-4-methyl-pentanoic acid] | – | – | Ki [1]: > 500 nM
CC(C)CC(N[C@@H](Cc1cncn1Cc1cccc(F)c1F)C(=O)O)C(=O)O (single isomer, unassigned) [IV, 2-[1-Carboxy-2-[3-(2,3-difluoro-benzyl)-3H-imidazol-4-yl]-ethylamino]4-methyl-pentanoic acid] | > 500 | – | –
CC(C)C[C@H](N[C@@H](Cc1ccc(NC(=O)C(C)(C)C)cc1)C(=O)O)C(=O)O [QS, 2-{1-Carboxy-2-[4-(2,2-dimethyl-propionylamino)-phenyl]-ethylamino}-4-methyl-pentanoic acid] | – | – | Ki [1]: 100 to 500 nM
CC(C)C[C@H](N[C@@H](Cn1ccn(CCc2ccccc2F)c1=O)C(=O)O)C(=O)O [PP, 2-(1-Carboxy-2-{3-[2-(2-fluoro-phenyl)-ethyl]-2-oxo2,3-dihydro-imidazol-1-yl}-ethylamino)-4-methyl-pentanoic acid] | – | – | Ki [1]: > 500 nM
NCCCC[C@@H](C(=O)O)N(CC(=O)O)CC(=O)O [K, 6-Amino-2-(bis-carboxymethyl-amino)-hexanoic acid] | – | – | Ki [4]: > 500 nM
Cc1cc(C[C@H](NC(CC(C)C)C(=O)O)C(=O)O)no1 (stereo in doubt) [IM, 2-[1-Carboxy-2-(5-methyl-isoxazol-3-yl)-ethylamino]-4-methyl-pentanoic acid] | > 500 | – | –
CC(C)C[C@H](N[C@@H](CN1C(=O)CN(Cc2cc(Cl)cc(Cl)c2)C1=O)C(=O)O)C(=O)O [PX, 2-[1-Carboxy-2-[3-(3,5-dichloro-benzyl)-2,5-dioxo-imidazolidin-1-yl]-ethylamino]-4-methyl-pentanoic acid] | – | – | Ki [1]: < 100 nM
Cc1ccc(-c2ccc(C[C@H](N[C@@H](CC(C)C)C(=O)O)C(=O)O)cc2)nc1 [PZ, (S,S)-2-{1-Carboxy-2-[4-(5-methyl-pyridin-2-yl)-phenyl]-ethylamino}-4-methyl-pentanoic acid] | – | < 50 | Ki [1]: < 100 nM

The next lines start with results.

Ki [2] [nM] | Ki [3] [nM] | Structure (SMILES) | also measured
< 100 | 50 to 100 | CC(C)C[C@H](N[C@@H](Cc1ccc(OCc2ccncc2)cc1)C(=O)O)C(=O)O [LV, 2-[1-Carboxy-2-[4-(pyridin4-ylmethoxy)-phenyl]-ethylamino]-4-methyl-pentanoic acid] | –
– | 50 to 100 | Cc1ccnc(-c2ccc(C[C@H](N[C@@H](CC(C)C)C(=O)O)C(=O)O)cc2)c1 [QA, (S,S)-2-{1-Carboxy-2-[4-(4-methyl-pyridin-2-yl)-phenyl]-ethylamino}-4-methyl-pentanoic acid] | Ki [1]: < 100 nM
> 500 | – | CC(C)CC(N[C@@H](Cc1cncn1Cc1ccc(C#N)cc1)C(=O)O)C(=O)O (single isomer, unassigned) [HB, 2-[1-Carboxy-2-[3-(4-cyano-benzyl)-3H-imidazol-4-yl]-ethylamino)4-methyl-pentanoic acid] | –
> 500 | – | CC(C)CC(N[C@@H](Cc1cncn1Cc1ccc(F)cc1)C(=O)O)C(=O)O (single isomer, unassigned) [IJ, 2-[1-Carboxy-2-[3-(4-fluoro-benzyl)-3H-imidazol-4-yl]-ethylamino]4-methyl-pentanoic acid] | –
< 100 | < 50 | CC(C)C[C@H](N[C@@H](CC(=O)Nc1nc2ccc(Cl)cc2s1)C(=O)O)C(=O)O [MB, (S,S)-2-[1-Carboxy-2-(6-chloro-benzothiazol-2-ylcarbamoyl)-ethylamino]-4-methyl-pentanoic acid] | –
> 500 | – | CC(C)C[C@H](N[C@@H](CCC(=O)Nc1nc2ccc(F)cc2s1)C(=O)O)C(=O)O [OV, (S,S)-2-[1-Carboxy-3-(6-fluoro-benzothiazol-2-ylcarbamoyl)-propylamino]-4-methyl-pentanoic acid] | –
< 100 | 50 to 100 | COc1cccc(Cn2cncc2C[C@H](NC(CC(C)C)C(=O)O)C(=O)O)c1OC (single isomer, unassigned) [IO, 2-[1-Carboxy-2-[3-(2,3-dimethoxy-benzyl)-3H-imidazol-4-yl]-ethylamino)4-methyl-pentanoic acid] | –
– | < 50 | CC(C)C[C@H](N[C@@H](Cc1ccc(C(=O)Nc2cc(Cl)cc(Cl)c2)cc1)C(=O)O)C(=O)O [QE, 2-[1-Carboxy-2-[4-(3,5-dichloro-phenylcarbamoyl)-phenyl]ethylamino]-4-methyl-pentanoic acid] | Ki [1]: < 100 nM
> 500 | – | CC(C)CC(NC(CC(=O)N1CCN(C(c2ccccc2)c2ccc(Cl)cc2)CC1)C(=O)O)C(=O)O (stereo not shown) [KW, 2-(1-Carboxy-3-[4-[(4-chloro-phenyl)-phenyl-methyl]-piperazin-1-yl]-3-oxo-propylamino)-4-methyl-pentanoic acid] | –
> 500 | – | COc1cc(OC)cc(-c2cccc(C[C@H](N[C@@H](CC(C)C)C(=O)O)C(=O)O)c2)c1 [MK, (S,S)-2-[1-Carboxy-2-(3′,5′-dimethoxy-biphenyl-3-yl)-ethylamino]-4-methyl-pentanoic acid] | –
< 100 | < 50 | CC(C)C[C@H](N[C@@H](CC(=O)Nc1nc2ccc(Br)cc2s1)C(=O)O)C(=O)O [MR, 2-[2-(6-Bromo-benzothiazol-2-ylcarbamoyl]-1-carboxy-ethylamino]-4-methyl-pentanoic acid] | –
100 to 500 | – | CC(C)C[C@H](N[C@@H](Cn1ccn(CC2CC2)c1=O)C(=O)O)C(=O)O [MH, 2-[1-Carboxy-2-(3-cyclopropylmethyl-2-oxo-2,3-dihydro-imidazol-1-yl)-ethylamino]-4-methyl-pentanoic acid] | –
100 to 500 | – | CC(C)C[C@H](N[C@@H](CCc1ccc(OCc2ccccc2)cc1)C(=O)O)C(=O)O [OQ, (S,S) 2-[3-(4-Benzyloxy-phenyl)-1-carboxy-propylamino]-4-methyl-pentanoic acid] | –
> 500 | – | CC(C)C[C@H](N[C@@H](Cc1ccc(-c2ccsc2)o1)C(=O)O)C(=O)O [NV, (S,S)-2-[1-Carboxy-2-(5-thiophen-3-yl-furan-2-yl)-ethylamino]-4-methyl-pentanoic acid] | –
100 to 500 | – | CC(C)C[C@H](N[C@@H](Cc1ccc(-c2ccc3c(c2)OCO3)o1)C(=O)O)C(=O)O [OJ, (S,S)-2-[2-(5-Benzo[1,3]dioxol-5-yl-furan-2-yl)-1-carboxy-ethylamino]-4-methyl-pentanoic acid] | –
